Legend:
[1] = Ca-binding capacity (colorimetric Ca kit); settings: 5 mg sample, 1 mL 5 mM CaCl2, 2 mL PBS 20 mM pH 7, 37 °C 1 h; ranking in words, Fig. 1C
Procedure: The Ca-binding capacities of SBPH, SBTH, and SBNPH were determined according to the previous study ([Choi, Jung, Choi, Kim, & Ha, 2005]). 5 mg lyophilized powder of SBPH, SBTH, and SBNPH, was mixed with 1 mL of 5 mM CaCl2 and 2 mL of phosphate-buffered saline (PBS, 20 mM, pH = 7). The mixture was stirred at 37 °C pH = 7 for 1 h, followed by centrifugation at 5000 rpm for 10 min. The calcium content in the supernatant was determined using colorimetry with Ca assay kits (JianCheng, Nanjing, China).

[2] = system: α-amylase; test: α-amylase inhibition rate (DNS method, soluble starch); assay type: biochemical; settings: 100 μg/mL; α-amylase 4 units/mL, PBS pH 6.9, 37 °C 10 min, 1% soluble starch 5 min, DNS 540 nm; mean, n = 3
Procedure: (§1) The activity of α-amylase was determined spectrophotometrically using soluble starch as the substrate and 3,5-dinitrosalicylic acid (DNS) as the chromogenic agent. α-amylase solution (4 units/mL, 0.25 mL) and 0.25 mL each of SBPH, SBTH, and SBNPH (each at 1 μg/mL, 10 μg/mL, 100 μg/mL, and 1000 μg/mL concentrations) were added to 0.5 mL of PBS (pH 6.9, 0.2 mol/L) to make test solutions. These solutions were then incubated at 37 °C for 10 min. Then, 0.5 mL of 1% soluble starch solution was added to each test solution to continue the reaction for 5 min. Thereafter, l mL of DNS reagent was added to each solution, and the mixtures were boiled for 10 min. After the dilution of five times, the absorbance value was measured at 540 nm ([Wu et al., 2019]). The inhibition of the activity of α-amylase by salmon bone hydrolysate was calculated as using the formula (1):(1) I%=[1−B−b/A−a×100% where I represents the inhibition rate of α-amylase by salmon bone hydrolysates. A represents the absorbance value of the blank tube, a represents the absorbance value of the blank control tube, B represents the absorbance value of the inhibition tube, and b represents the absorbance value of the background control tube.

[3] = system: α-amylase; test: α-amylase inhibition during in vitro simulated gastrointestinal digestion; assay type: biochemical; settings: 0-240 min, DNS method
Procedure: as §1, with “The inhibition of the activity of α-amylase by salmon bone hydrolysate was calculated as using the formula (1):(1) I%=[1−B−b/A−a×100% where I represents the inhibition rate of α-amylase by salmon bone hydrolysates.” left out
A gastrointestinal digestion simulation test was performed according to a previously reported method ([Brodkorb et al., 2019]). Samples were assessed at 0, 10, 30, 60, 90, 120, 130, 150, 180, 210, and 240 min. The inhibition rates of SBPH, SBTH, and SBNPH for α-amylase were determined by the DNS method.

[4] = system: α-amylase; test: α-amylase conformation: secondary structure content by circular dichroism; assay type: biochemical; settings: 1-1000 μg/mL
Procedure: The effect of peptides on the secondary structure of α-amylase was analyzed by circular dichroism. α-Amylase was reacted with the following different concentrations of SBPH, SBTH, and SBNPH: 1, 10, 100, and 1000 μg/mL. The test parameters were as follows: 1 mm quartz cuvette; scanning wavelength range = 190– 250 nm; bandwidth = 2 nm; scanning speed = 100 nm/min; and response time = 1 s. α-Amylase without SBPH, SBTH, and SBNPH treatment was used as the blank control, and it was analyzed under the same conditions. The experimental results were obtained by subtracting the buffer background from the scanned data ([Zhang & Ma, 2013]).

[5] = system: α-amylase; test: DLS analysis of α-amylase particle size / hydrodynamic radius; assay type: biochemical; settings: α-amylase 4 units/mL, substance 1-1000 μg/mL, 24 h incubation
Procedure: The α-amylase solution (4 units/mL) and SBPH, SBTH, and SBNPH solutions (each at 1, 10, 100, and 1000 μg/mL concentrations) were prepared. Filtration was performed using a 0.45-μm filter. The α-amylase solution was incubated with different concentrations of SBPH, SBTH, and SBNPH solutions for 24 h. Each sample (1 mL) was analyzed using the DLS apparatus. The particle size variation of α-amylase in each solution was analyzed. The α-amylase alone solution was used as a positive control under the same conditions ([Xiong et al., 2016]).

[6] = target: α-amylase; test: Kinetics of α-amylase inhibition (Lineweaver-Burk); assay type: biochemical; settings: 37 °C
Procedure: The kinetics of α-amylase inhibition was performed with minor modifications as previously reported ([Cardullo et al., 2020]). In the reaction system, 1 mL of soluble starch solution (10 mg/mL) and 1 mL of different concentrations of SBPH, SBTH, and SBNPH (concentrations of 1, 10, 100, and 1000 μg/mL, respectively) were added. a temperature bath was maintained at 37 °C for 30 min. Different concentrations of α-amylase solution were added. The change in absorbance value of the system was determined. Plot the rate of enzymatic reaction versus α-amylase concentration.
To the reaction system, 1 mL of soluble starch solution of different concentrations (0, 5, 10, 15, 20, 25 mg/mL) was added. The effects of different concentrations of SBPH, SBTH and SBNPH on α-amylase activity were determined at 37 °C in a water bath. Finally, the inverse of the concentration of soluble starch solution was used as the horizontal coordinate and plotted with Lineweaver-Burk plots to determine the type of inhibition of α-amylase by SBPH, SBTH and SBNP. The general equation for reversible inhibition is given below: v=vmaxS/Km1+i/Kic+1+i/Kiu 1/v=Km+s/vmaxs+iKm/Kic+s/Kiu/vmaxs 1/v=Km/vmax1+i/Kic+s/vmax1+i/Kiu where Km is the Michaelis-menten constand (mg/mL), v denotes the initial reaction rate (U, mm/min), S denotes the substrate concentration (mg/mL), i denotes the content of the inhibitor concentration (U, mg/mL), Kic denotes the inhibitory constant of the competitive inhibitor, and Kiu denotes the inhibitory constant of the non-competitive inhibitor.

[7] = system: 3 T3-L1 preadipocytes; test: Cellular triglyceride content; assay type: cell-based; settings: 1000 μg/mL, with Inducers I and II
Procedure: (§2) With minor modifications based on the method ([Lee et al., 2023]). 3 T3-L1 Preadipocytes were cultured at 37 °C and 5% CO2 until 80% fusion, passaged and differentiated. After induction with inducers for 8d, the cells were then cultured with DMEM containing 1% PS and 10% FBS for 4d.
Cellular triglyceride content (TG) was measured using a kit (JianCheng, Nanjing, China). Differentiated adipocytes were treated with different samples in 6-well plates according to the manufacturer's instructions. Cells were first washed with PBS, followed by the addition of ethanol. The cells were then transferred into centrifuge tubes using a cell scraper. Subsequently, the cells were broken down by ultrasound in an ice water bath. […] was measured using a specialized kit.

[8] = system: 3 T3-L1 preadipocytes; test: Total cellular cholesterol content; assay type: cell-based; settings: 1000 μg/mL
Procedure: as §2
Total cellular cholesterol content was measured using a kit (JianCheng, Nanjing, China). The […] enzymatic method was used according to the manufacturer's instructions. Protein concentration was measured using the BCA protein assay kit (Solarbio, Beijing, China).

[9] = Effect of PIE on body weight in mice; assay type: in vivo; settings: 30 mg/kg by gavage, 12 weeks, female BALB/c mice
Procedure: The animal study was approved by the Animal Ethics Committee of Dalian Polytechnic University (protocol ID SYXK2017–0005) per the guidelines of the National Institutes of Health Laboratory Animals for Animal Care. 10-week-old female BALB/c mice (L20160258, Dalian Medical University, Liaoning, China) were acclimatized with normal chow for 2 d, and were randomly separated 2 groups (n = 8): the control group (saline) and the PIE group (at a dose of 30 mg PIE/kg body weight). Both groups were maintained on a basal diet throughout the study. Given that mice are nocturnal feeders, gavage was performed between 5:00–6:00 PM. Body weights were measured and recorded at 7-day intervals. The feed and water were provided ad libitum to mice. Changes in body weight were analyzed after 12 weeks of continuous gavage ([Pinzón-García et al., 2018]).

[10] = ref Xu et al., 2020, 2019, 2022; cited from earlier work
Excerpt: Peptidomics facilitates the comprehensive characterization of peptides on a large scale. This analytical approach offers a time-efficient means of generating an extensive array of peptide fragments ([Martini, Solieri, & Tagliazucchi, 2021]). Herein, the peptide sequences were retrieved from an established database using MASCOT, and active peptide sequences with Ca-binding capacities were identified. The peptide sequences from SBTH were identified in Table S1 (Supplementary materials), along with information on their amino acid sequences, lengths, and molecular weights. A total of 6505 peptide ...

[11] = ref Xu et al., 2020, 2019, 2022; cited from earlier work; remark: listed apart in the source
[12] = system: 3 T3-L1 preadipocytes; test: Cell viability (MTT) in 3 T3-L1 preadipocytes; assay type: cell-based; settings: 24 h, 1 to 100 μg/mL
Procedure: With slight modifications based on the method ([Cui et al., 2019]). MTT method was used to assess the proliferative effects of different concentrations of orlistat, SBTH and PIE on 3 T3-L1 preadipocytes. Cells were treated with different samples for 24 h. Finally, the absorbance at 490 nm was measured using a Microplate Reader (Synergy H1, BioTek, USA).

[13] = Lineweaver-Burk double inverse plots, soluble starch 0-25 mg/mL

IEELEEELEAER [PIE, Ile-Glu-Glu-Leu-Glu-Glu-Glu-Glu-Leu-Glu-Ala-Glu-Arg, peptide … from SBTH, purity 94.74%, synthesized at ChinaPeptides]
calcium-binding capacity / affinity [1]: greatest affinity for calcium
α-amylase inhibition rate [2]: 58.81%
α-amylase inhibition rate with simulated digestion time [3]: the inhibition rate decreased significantly with the increasing duration of gastrointestinal digestion
change of α-amylase secondary structure with increasing concentration [4]: a decrease in α-helix content and an increase in β-fold structures
hydrodynamic radius of α-amylase [5]: increased gradually
KI [6, 13]: 3290 µg/mL
KIS [6, 13]: 3.97 mg/mL
reversibility of α-amylase inhibition ([6]; enzyme reaction rate against α-amylase concentration): reversible
TG content reduced to [7]: 52.11%
TC content decreased to [8]: 54.35%
body weight change ([9]; n = 8): no significant weight change
weight gain over three months ([9]; n = 8, basal diet, control group 33.65%): 6.61%
calcium-binding capability [10]: pronounced calcium-binding capability
activity and stability in the gastrointestinal tract [11]: robust activity and stability within the gastrointestinal tract

CCCCCCCCCCC[C@@H](C[C@@H]1OC(=O)[C@H]1CCCCCC)OC(=O)[C@H](CC(C)C)NC=O [orlistat]
cytotoxicity [12]: no cytotoxicity

— paper PMC11004067, “Identification and characterization of a calcium-binding peptide from salmon bone for the targeted inhibition of α-amylase in digestion” (Food Chemistry: X, 2024)
